# From US9139557B2, “Carboxamide compounds and their use as calpain inhibitors” (Abbott GmbH & Co. KG, priority 2006, dated 2015)
# Experiments:
# Format in all cases: biochemical
# cathepsin S = target: T1, cathepsin S (Homo sapiens, UniProt P25774); assay: Cathepsin S enzyme inhibition in vitro (kinetic fluorescence assay); conditions: Ki(cathepsin S)/Ki(calpain) ratio
# T1 construct: purchased Calbiochem 219343; host or cells: E. coli
# Procedure: (§1) Testing for blockade of the corresponding enzymic activities was carried out by means of kinetic fluorescence assays (excitation 390 nm, emission 460 nm).
# (§2) Apparent Ki values were calculated from the experimentally determined IC50 values by the Cheng-Prussoff relation assuming a reversible competitive enzyme inhibition. The Km values of the substrates used under the assay conditions indicated above were: 90 μM (Z-Phe-Arg-AMC, cathepsin B), 10 μM (Z-Gly-Pro-Arg-AMC, cathepsin K), 2 μM (Z-Phe-Arg-AMC, cathepsin L), and 30 μM (Z-Val-Val-Arg-AMC, cathepsin S).
# (§3) The indicated Ki values are averages of the inhibition constants calculated on the basis of 2 to 4 independent dose-effect plots.
# (§4) • 1. Calpain I: • 20 nM calpain-I—isolated from human erythrocytes (Calbiochem #208713), 100 μM Suc-Leu-Tyr-AMC (Bachem #1-1355) as substrate in buffer with 62 mM imidazole, 0.3 mM CaCl2, 0.10% CHAPS, 0.05% BSA, 1 mM DTT at pH 7.3 and room temperature. • 2. Cathepsin B: • 0.25 nM cathepsin B—isolated from human liver (Calbiochem #219362), 100 μM Z-Phe-Arg-AMC (Bachem #1-1160) as substrate 50 mM MES, 2 mM EDTA, 0.05% Brij 35, 2.5 mM L-cysteine, pH 6.0, room temperature. • 3. Cathepsin K: • 3 nM cathepsin K—activated from recombinant human procathepsin K from E. coli (Calbiochem #342001), 10 μM Z-Gly-Pro-Arg-AMC (Biomol #P-142) as substrate in 50 mM MES, 2 mM EDTA, 0.05% Brij 35, 2.5 mM L-cysteine, pH 6.0, room temperature. • 4. Cathepsin L: • 1 nM cathepsin L—isolated from human liver (Calbiochem #219402), 2 μM Z-Phe-Arg-AMC (Bachem #1-1160) as substrate in 50 mM MES, 2 mM EDTA, 0.05% Brij 35, 2.5 mM L-cysteine, pH 6.0, room temperature. • 5. Cathepsin S: • 0.5 nM recombinant human cathepsin S from E. coli (Calbiochem #219343), 20 μM Z-Val-Val-Arg-AMC (Bachem #1-1540) as substrate in 50 mM MES, 2 mM EDTA, 0.05% Brij 35, 2.5 mM L-cysteine, pH 6.0, room temperature.
# cathepsin K = target: T2, cathepsin K (Homo sapiens, UniProt P43235); assay: Cathepsin K enzyme inhibition in vitro (kinetic fluorescence assay); conditions: Ki(cathepsin K)/Ki(calpain) ratio
# T2 construct: purchased Calbiochem 342001; host or cells: E. coli
# T2 sequence (P43235 115-329): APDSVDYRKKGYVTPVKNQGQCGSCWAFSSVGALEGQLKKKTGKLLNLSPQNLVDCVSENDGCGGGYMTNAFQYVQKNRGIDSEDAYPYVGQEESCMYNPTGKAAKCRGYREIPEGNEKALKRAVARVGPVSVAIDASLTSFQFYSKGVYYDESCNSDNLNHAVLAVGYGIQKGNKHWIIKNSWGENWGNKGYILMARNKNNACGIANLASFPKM
# Procedure: as §1, §2, §3, §4
# cathepsin L = target: T3, cathepsin L (Homo sapiens, UniProt P07711); assay: Cathepsin L enzyme inhibition in vitro (kinetic fluorescence assay); conditions: Ki(cathepsin L)/Ki(calpain) ratio
# T3 construct: cathepsin L—isolated from human liver; purchased Calbiochem 219402; host or cells: human liver (tissue isolate)
# Procedure: as §1, §2, §3, §4
# cathepsin B = target: T4, cathepsin B (Homo sapiens, UniProt P07858); assay: Cathepsin B enzyme inhibition in vitro (kinetic fluorescence assay); conditions: Ki(cathepsin B)/Ki(calpain) ratio
# T4 construct: cathepsin B—isolated from human liver; purchased Calbiochem 219362; host or cells: human liver (tissue isolate)
# Procedure: as §1, §2, §3, §4
# T1 sequence (P25774 115-331): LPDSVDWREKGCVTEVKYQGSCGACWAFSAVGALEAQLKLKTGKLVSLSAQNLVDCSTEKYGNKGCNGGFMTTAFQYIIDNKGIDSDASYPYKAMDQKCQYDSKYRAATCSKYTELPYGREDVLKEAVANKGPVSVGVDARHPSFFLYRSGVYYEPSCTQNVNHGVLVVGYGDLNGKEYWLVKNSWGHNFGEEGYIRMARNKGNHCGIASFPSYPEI
# T3 sequence (P07711 114-333): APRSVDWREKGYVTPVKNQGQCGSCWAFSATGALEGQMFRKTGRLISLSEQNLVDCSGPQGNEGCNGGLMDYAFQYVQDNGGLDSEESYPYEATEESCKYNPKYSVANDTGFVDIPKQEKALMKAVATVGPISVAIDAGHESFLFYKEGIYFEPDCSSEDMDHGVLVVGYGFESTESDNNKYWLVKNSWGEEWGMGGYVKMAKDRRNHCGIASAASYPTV
Compound,Sel cat. S (cathepsin S),Sel cat. K (cathepsin K),Sel cat. L (cathepsin L),Sel cat. B (cathepsin B)
"Cl.NC(=O)C(=O)C(Cc1ccccc1)NC(=O)c1cccnc1-n1ccc(-c2ccc(N3CCOCC3)cc2)n1 (stereo not drawn) [Example 29, N-(3-Amino-1-benzyl-2,3-dioxopropyl)-2-[3-(4-morpholin-4-ylphenyl)-1H-pyrazol-1-yl]nicotinamide hydrochloride]",++ (++ means a Ki(cathepsin S)/Ki(calpain) ratio of ≧100),+ (+ means 10≦Ki(cathepsin K)/Ki(calpain)<30),++ (++ means a Ki(cathepsin L)/Ki(calpain) ratio of ≧50),
"Cc1cn(-c2ncccc2C(=O)NC(Cc2ccccc2)C(=O)C(N)=O)nc1-c1ccccc1 (stereo not drawn) [Example 84, N-(3-Amino-1-benzyl-2,3-dioxopropyl)-2-(4-methyl-3-phenyl-1H-pyrazol-1-yl)nicotinamide]",++ (++ means a Ki(cathepsin S)/Ki(calpain) ratio of ≧100),,++ (++ means a Ki(cathepsin L)/Ki(calpain) ratio of ≧50),+ (+ means 10≦Ki(cathepsin B)/Ki(calpain)<30)
"COc1ccc(OC)c(-c2ccn(-c3ncccc3C(=O)NC(Cc3ccccc3)C(=O)C(N)=O)n2)c1 (stereo not drawn) [Example 151, N-[3-Amino-2,3-dioxo-1-(phenylmethyl)propyl]-2-{3-[2,5-bis(methyloxy)phenyl]-1H-pyrazol-1-yl}pyridine-3-carboxamide]",,++ (++ means a Ki(cathepsin K)/Ki(calpain) ratio of ≧30),++ (++ means a Ki(cathepsin L)/Ki(calpain) ratio of ≧50),++ (++ means a Ki(cathepsin B)/Ki(calpain) ratio of ≧30)
"CC(C)c1ccc2c(c1)-c1nn(-c3ncccc3C(=O)NC(Cc3ccccc3)C(=O)C(N)=O)cc1CO2 (stereo not drawn) [Example 144, N-[3-Amino-2,3-dioxo-1-(phenylmethyl)propyl]-2-[8-(1-methylethyl)chromeno[4,3-c]pyrazol-2(4H)-yl]pyridine-3-carboxamide]",++ (++ means a Ki(cathepsin S)/Ki(calpain) ratio of ≧100),,++ (++ means a Ki(cathepsin L)/Ki(calpain) ratio of ≧50),+ (+ means 10≦Ki(cathepsin B)/Ki(calpain)<30)
"NC(=O)C(=O)C(Cc1ccccc1)NC(=O)c1cccnc1-n1ccc(-c2ccc3c(c2)CCO3)n1 (stereo not drawn) [Example 75, N-(3-Amino-1-benzyl-2,3-dioxopropyl)-2-[3-(2,3-dihydrobenzo[b]furan-5-yl)-1H-pyrazol-1-yl]nicotinamide]",++ (++ means a Ki(cathepsin S)/Ki(calpain) ratio of ≧100),+ (+ means 10≦Ki(cathepsin K)/Ki(calpain)<30),++ (++ means a Ki(cathepsin L)/Ki(calpain) ratio of ≧50),
"NC(=O)C(=O)C(Cc1ccccc1)NC(=O)c1cccnc1-n1ccc(-c2cccc(N3CCCC3)c2)n1 (stereo not drawn) [Example 74, N-(3-Amino-1-benzyl-2,3-dioxopropyl)-2-[3-(3-pyrrolidin-1-ylphenyl)-1H-pyrazol-1-yl]nicotinamide]",++ (++ means a Ki(cathepsin S)/Ki(calpain) ratio of ≧100),++ (++ means a Ki(cathepsin K)/Ki(calpain) ratio of ≧30),,++ (++ means a Ki(cathepsin B)/Ki(calpain) ratio of ≧30)
"N#Cc1cnc(-n2ccc(-c3ccccc3F)n2)c(C(=O)NC(Cc2ccccc2)C(=O)C(N)=O)c1 (stereo not drawn) [Example 188, N-[3-Amino-2,3-dioxo-1-(phenylmethyl)propyl]-5-cyano-2-[3-(2-fluorophenyl)-1H-pyrazol-1-yl]pyridine-3-carboxamide]",,++ (++ means a Ki(cathepsin K)/Ki(calpain) ratio of ≧30),++ (++ means a Ki(cathepsin L)/Ki(calpain) ratio of ≧50),
"NC(=O)C(=O)C(Cc1cccs1)NC(=O)c1cccnc1-n1ccc(-c2ccccc2)n1 (stereo not drawn) [Example 40, N-[3-Amino-2,3-dioxo-1-(2-thienylmethyl)propyl]-2-(3-phenyl-1H-pyrazol-1-yl)pyridine-3-carboxamide]",++ (++ means a Ki(cathepsin S)/Ki(calpain) ratio of ≧100),,++ (++ means a Ki(cathepsin L)/Ki(calpain) ratio of ≧50),+ (+ means 10≦Ki(cathepsin B)/Ki(calpain)<30)
"NC(=O)C(=O)C(Cc1ccc(Br)cc1)NC(=O)c1cccnc1-n1ccc(-c2ccccc2)n1 (stereo not drawn) [Example 122, N-{3-Amino-1-[(4-bromophenyl)methyl]-2,3-dioxopropyl}-2-(3-phenyl-1H-pyrazol-1-yl)pyridine-3-carboxamide]",++ (++ means a Ki(cathepsin S)/Ki(calpain) ratio of ≧100),,++ (++ means a Ki(cathepsin L)/Ki(calpain) ratio of ≧50),++ (++ means a Ki(cathepsin B)/Ki(calpain) ratio of ≧30)
"NC(=O)C(=O)C(CC1CCCCC1)NC(=O)c1cccnc1-n1ccc(-c2ccccc2)n1 (stereo not drawn) [Example 66, N-[3-Amino-1-(cyclohexylmethyl)-2,3-dioxopropyl]-2-(3-phenyl-1H-pyrazol-1-yl)nicotinamide]",++ (++ means a Ki(cathepsin S)/Ki(calpain) ratio of ≧100),+ (+ means 10≦Ki(cathepsin K)/Ki(calpain)<30),+ (+ means 30≦Ki(cathepsin L)/Ki(calpain)<50),
"NC(=O)C(=O)C(Cc1ccccc1)NC(=O)c1cccnc1-n1ccc(-c2cccc3cnccc23)n1 (stereo not drawn) [Example 156, N-[3-Amino-2,3-dioxo-1-(phenylmethyl)propyl]-2-(3-isoquinolin-5-yl-1H-pyrazol-1-yl)pyridine-3-carboxamide]",++ (++ means a Ki(cathepsin S)/Ki(calpain) ratio of ≧100),,+ (+ means 30≦Ki(cathepsin L)/Ki(calpain)<50),+ (+ means 10≦Ki(cathepsin B)/Ki(calpain)<30)
"CN1CCN(c2ccc(-c3ccn(-c4ncccc4C(=O)NC(Cc4ccccc4)C(=O)C(N)=O)n3)cc2)CC1 (stereo not drawn) [Example 68, N-(3-Amino-1-benzyl-2,3-dioxopropyl)-2-{3-[4-(4-methylpiperazin-1-yl)phenyl]-1H-pyrazol-1-yl}nicotinamide]",++ (++ means a Ki(cathepsin S)/Ki(calpain) ratio of ≧100),+ (+ means 10≦Ki(cathepsin K)/Ki(calpain)<30),,
"NC(=O)C(=O)C(Cc1ccccc1)NC(=O)c1cccnc1-n1ccc(C2CCCCC2)n1 (stereo not drawn) [Example 192, N-[3-Amino-2,3-dioxo-1-(phenylmethyl)propyl]-2-(3-cyclohexyl-1H-pyrazol-1-yl)pyridine-3-carboxamide]",++ (++ means a Ki(cathepsin S)/Ki(calpain) ratio of ≧100),+ (+ means 10≦Ki(cathepsin K)/Ki(calpain)<30),++ (++ means a Ki(cathepsin L)/Ki(calpain) ratio of ≧50),
"Cc1cc(-c2ccccc2)nn1-c1ncccc1C(=O)NC(Cc1ccccc1)C(=O)C(N)=O (stereo not drawn) [Example 61, N-(3-Amino-1-benzyl-2,3-dioxopropyl)-2-(5-methyl-3-phenyl-1H-pyrazol-1-yl)nicotinamide]",++ (++ means a Ki(cathepsin S)/Ki(calpain) ratio of ≧100),,,+ (+ means 10≦Ki(cathepsin B)/Ki(calpain)<30)
"N-{3-Amino-1-[(4-fluorophenyl)methyl]-2,3-dioxopropyl}-2-[3-(2,3-dichlorophenyl)-1H-pyrazol-1-yl]pyridine-3-carboxamide [Example 161]",++ (++ means a Ki(cathepsin S)/Ki(calpain) ratio of ≧100),,+ (+ means 30≦Ki(cathepsin L)/Ki(calpain)<50),+ (+ means 10≦Ki(cathepsin B)/Ki(calpain)<30)
